Source: patent US11124523B2, “2,6-dioxaspiro [4,5] decane derivatives and preparation method therefor and pharmaceutical applications thereof” (SHANDONG LUYE PHARMACEUTICAL CO., LTD., priority 2017, dated 2021)
Counter-ions that a name gives are not always drawn.

Tests used:
[1] = Metabolic stability in liver microsomes; type: in vitro ADME; conditions: pH 7.4; human liver microsomes 0.5 mg protein/mL; 45 mg microsome protein/g liver, 20 g liver/kg; read-out: Intrinsic Clearance CLint(liver) in Human Liver
Method: Test 3: Metabolic Stability in Liver Microsomes
3.1 Experimental Purpose: To test the metabolic stability of the compounds of the present disclosure in human liver microsomes
a. All samples as well as testosterone, diclofenac and propafenone acting as reference substances were dissolved in DMSO to a storage concentration of 10 mM.
b. Intermediate Solution: 5 μL of the substance to be tested or the reference substance was diluted with 45 μL of DMSO (with 450 μL of 1:1 methanol/water).
c. Working Solution: the intermediate solution was diluted with 450 μL of 100 mM potassium phosphate buffer solution (pH 7.4).
Assay Buffer: 100 mM potassium phosphate buffer (pH 7.4) • 10 mM MgCl2
Liver Microsome Solution (final concentration: 0.5 mg protein/mL):
Human liver microsomes, obtained from BD, Cat No. 452117, Lot No. 38291
b. 10 μL of the working solution containing the substance to be tested or the reference substance was added to each of plates (T0, T5, T10, T20, T30, T60, NCF60).
c. The liver microsome solution was dispensed into a 96-well plate in an amount of 680 μL/well, then 80 was added, and then T was added to each of the plates. The above incubation plate was placed at 37° C. and pre-incubated for approximately 10 minutes.
d. 10 μL of 100 mM potassium phosphate buffer was added to each well in the NCF60 plate.
e. After the pre-incubation was finished, the NADPH regeneration system working solution was dispensed into the 96-well plate in an amount of 90 μL/well, and then added to each of the plates in an amount of 10 μL/well to start the reaction.
f. The plates were incubated for an appropriate time (e.g., 5, 10, 20, 30, or 60 minutes).
g. The stop solution (refrigerated at 4° C., containing 100 ng/mL Tolbutamide and 100 ng/mL Labetalol) was added to each sample well in an amount of 300 μL/well.
h. The sample plates were shaken well for about 10 minutes and centrifuged at 4,000 rpm for 20 minutes at 4° C. During the centrifugation, 300 μL of HPLC water was added to each well, and 100 μL of the supernatant was taken for LC-MS/MS analysis.
T1/2 and Clint(mic) were calculated by the following formula: […]
Each gram of liver contained 45 mg of microsome protein, and the liver weight was 20 g/kg in a human.
Ct was the concentration at time t, t was the incubation time, C0 was the concentration at time 0, Ke was an elimination rate constant, Clint(mic) was the intrinsic clearance in liver microsomes, and Clint(liver) was the intrinsic clearance in liver. CLint(mic)=0.693/half-life/mg of microsome protein per mL(concentration of microsomes during incubation) CLint(liver)=CLint(mic)×mg of microsome protein/g of liver weight×a ratio of liver weight to body weight 3.4 Test Results

[2] = molecular target: T1, human μ-subtype opioid receptor (hMOR) (Homo sapiens (Human), UniProt P35372); test: MOR β-arrestin-2 agonist activity test; type: cell-based; conditions: for Emax: maximum effect of enkephalin DAMGO was 100%, about 0% = no actual agonist activity
Method: Test 2: β-Arrestin-2 Agonist Activity Test
2.1 Experimental Purpose: To test the β-arrestin-2 agonist activity of the compounds of the present disclosure on the human μ-subtype opioid receptor (hMOR).
a. All samples were dissolved in DMSO to a storage concentration of 10 mM.
(§1) b. A series of diluted samples were formulated on a 384-well LDV plate. A total of 11 concentration points were obtained by 3.162-fold gradient dilution.
c. The series of diluted samples were transferred to an experimental plate by using an Echo machine, wherein 60 nL of the compound was transferred corresponding to each well.
d. 60 nL of 3.33 mM DAMGO (as HPE) and 60 nL of DMSO (as ZPE) were transferred to the corresponding positions on the experimental plate by using the Echo machine.
The experiment was performed using PathHunter Detection Kit from DiscoveRX Cooperation (DiscoveRX #93-0213C3)
a. Assay buffer and PathHunter detection reagent required for the experiment were formulated.
Assay Buffer: 1×DPBS buffer
PathHunter Detection Reagent: The kit was provided therein with three constituents.
c. The experimental plate was centrifuged at 300 rpm for 30 s and incubated at room temperature for 2 hours.
d. 6 μL of the PathHunter detection reagent was added to each well of the experimental plate.
e. The experimental plate was centrifuged at 300 rpm for 30 seconds, then left at room temperature for 60 minutes, and then read on the Envision.

[3] = molecular target: T1, human μ-subtype opioid receptor (hMOR); test: MOR cAMP agonist activity test; type: cell-based; conditions: for Emax: maximum effect of enkephalin DAMGO was 100%
Method: Test 1: MOR cAMP Agonist Activity Test
1.1 Experimental Purpose: To test the cAMP agonist activity of the compounds of the present disclosure on the human μ-subtype opioid receptor (hMOR).
a. Compound samples were dissolved in DMSO to a storage concentration of 10 mM.
as §1
c. The series of diluted samples were transferred to an experimental plate (Corning-3824) by using an Echo machine, wherein 30 nL was transferred corresponding to each well.
The experiment was performed using a cAMP detection kit from Cisbio (Cisbio #62AM4PEJ).
a. Assay buffer and stimulation buffer (STB) required for the experiment were formulated.
Stimulation Buffer: formulated with the assay buffer, containing 5 μM NKH477 (CAS: 138605-00-2) and 200 μM IBMX (3-isobutyl-1-methylxanthine)
b. […] The number of cells in the well was 10,000 cells/well.
c. The experimental plate was placed in a 37° C. constant-temperature incubator for incubation. The incubation was performed for 40 minutes.
d. A cAMP standard concentration curve was prepared. The first concentration point was at 2848 nM, and a total of sixteen detection concentrations were obtained by 4-fold gradient dilution. There were three replicates for each concentration point.
e. The cAMP detection kit from Cisbio was provided therein with a d2-labeled cAMP reagent (d2 reagent) and an Eu-labeled cAMP antibody reagent (Crypate reagent). The above two reagents were formulated according to the kit instructions, and then added to the sample experimental plate and to the cAMP standard concentration experimental plate, respectively. It was necessary to add 5 μL of the d2 reagent and then 5 μL of the Cryptate reagent to each well.
f. After the experimental plates were left at room temperature for 60 minutes, the experimental plates were read on the Envision.

[4] = Pharmacokinetics of the compounds in rats; type: in vivo, rat
Method: 6.1 Experimental Purpose: To measure, using a LC/MS/MS method, the medicament concentrations of the compound in plasma and specific tissues at different time points after the compound was administered by a single intravenous injection (IV) to 7-9-week-old male SD rats used as test animals, to study on the pharmacokinetic behavior of the compound of the present disclosure in rats, and to evaluate the pharmacokinetic characteristics thereof. 6.2 Compound Formulation
Each of them was formulated at a concentration of 1 mg/mL and was used for IV (intravenous injection) administration.
The actual weights of the rats were weighed on the day of administration and volumes to be administered were calculated. The above formulated solutions to be administered were administered by injection into caudal veins of rats.
About 0.2 mL of whole blood samples were collected by means of jugular vein puncture at the time set in the experimental protocol, and the actual blood collection time was recorded in the experimental records. All the blood samples were added to labeled plastic centrifuge tubes to which K2-EDTA anticoagulant was added in advance. After the blood samples were collected, they were centrifuged at 3,000 g for 10 minutes at 4° C. to prepare the supernatant plasma, and the plasma was stored at −20° C. or a lower temperature for LC-MS/MS analysis.
The concentrations of the compounds in rat plasma were measured by using high-performance liquid chromatography-tandem mass spectrometry (LC-MS/MS). The retention durations of the compounds and internal standard, chromatogram acquisition, and integration of chromatograms were processed using the software Analyst (Applied Biosystems), and data statistics were processed using the software Watson LIMS (Thermo Fisher Scientific) or Analyst (Applied Biosystems). The plasma concentration was processed using a non-compartmental model of WinNonlin™ Version 6.3 (Pharsight, Mountain View, Calif.) which was a pharmacokinetic software, and the pharmacokinetic parameters were calculated using a linear logarithmic trapezoidal method.

[5] = >30000 nM = greater than the highest detection concentration, read-out: MOR β-arrestin-2 EC50

Row | SMILES | EC50 [2, 5] [nM] | Emax [2] [%] | EC50 [3] [nM] | Emax [3] [%] | other results
1 | COc1ccsc1CNCC[C@@]1(c2ccc(F)cc2)CCO[C@]2(CCOC2)C1 [(+)-3] | > 30000 | ~0 | 3 | 82 | CLint scaled [1]: 39 mL/min/kg
2 | Fc1ccc([C@]2(CCNCc3scc4c3CCC4)CCO[C@]3(CCOC3)C2)nc1 [(+)-5] | > 30000 | ~0 |  | 96.5 | Apparent Clearance Cl ([4]; male SD rats, single IV, mg/Kg: Comparative Compound 1 1.80, (+)-5 2.40, (+)-16 1.76, HCl salt of (+)-23 1.71): 58.9 mL/min/kg; Vd ([4]; male, SD, rat, plasma, iv, read-out: Apparent Distribution Volume Vd): 3.6 L/kg; AUC(0-inf) ([4]; male, SD, rat, plasma, iv, read-out: Area under the Curve AUC0-inf): 1.4 µM·h; half-life ([4]; male, SD, rat, plasma, iv, read-out: Hal-life T1/2 (converted)): 54 min; C0 ([4]; male, SD, rat, plasma, iv, read-out: Initial Concentration C0): 1810 nM; Brain/Plasm Ratio B/P ratio ([4]; rats, IV, sampling point […], mg/Kg: Comparative Compound 1 0.56, (+)-5 2.40, (+)-16 1.76, HCl salt of (+)-23 1.71): 2.19
3 | Fc1ccnc([C@]2(CCNCc3scc4c3CCC4)CCO[C@]3(CCOC3)C2)c1 [(+)-6] | > 30000 | ~0 | 1.8 | 86.5 | CLint scaled [1]: 86 mL/min/kg
4 | c1ccc([C@]2(CCNCc3scc4c3COC4)CCO[C@]3(CCOC3)C2)nc1 [(+)-7] | > 30000 | ~0 | 14.1 | 90.4 | 
5 | Cc1cc(C)cc(CNCC[C@@]2(c3ccccn3)CCO[C@]3(CCOC3)C2)c1 [(+)-10] | > 30000 | ~0 | 11.6 | 96.6 | 
6 | c1ccc([C@]2(CCNCc3cccc4c3CCCC4)CCO[C@]3(CCOC3)C2)nc1 [(+)-11] | > 30000 | ~0 | 1.4 | 87.2 | CLint scaled [1]: 72.5 mL/min/kg
7 | Cc1ccsc1CNCC[C@@]1(c2ccc(F)cc2)CCO[C@]2(CCOC2)C1 [(+)-13] | > 30000 | ~0 | 4.1 | 61.2 | 
8 | Fc1ccc([C@]2(CCNCc3cccs3)CCO[C@]3(CCOC3)C2)cc1 [(+)-14] |  | ~0 |  |  | 
9 | Fc1ccc([C@]2(CCNCc3ccc(Cl)cc3)CCO[C@]3(CCOC3)C2)nc1 [(+)-17] | > 30000 | ~0 | 8.9 | 78.5 | 
10 | c1ccc([C@]2(CCNCc3cccc4c3CCC4)CCO[C@]3(CCOC3)C2)nc1 [(+)-19] | > 30000 | ~0 | 4.5 | 69.9 | 
11 | Clc1ccc(CNCC[C@@]2(c3ccccn3)CCO[C@]3(CCOC3)C2)cc1Cl [(+)-20] | > 30000 | ~0 | 3.1 | 99.6 | 
12 | Clc1cc(Cl)cc(CNCC[C@@]2(c3ccccn3)CCO[C@]3(CCOC3)C2)c1 [(+)-21] | > 30000 | ~0 | 2.2 | 92.3 | 
13 | c1ccc([C@]2(CCN[C@H]3CCc4ccccc43)CCO[C@]3(CCOC3)C2)nc1 [(+)-25] | > 30000 | ~0 |  | 90 | 
14 | Fc1ccc([C@]2(CCN[C@H]3CCCc4ccccc43)CCO[C@]3(CCOC3)C2)nc1 [(+)-26] | > 30000 | ~0 | 0.2 | 96 | 
15 | c1ccc([C@]2(CCN[C@H]3CCCc4ccccc43)CCO[C@]3(CCOC3)C2)nc1 [(+)-27] | > 30000 | ~0 | 0.8 | 91 | 
16 | Fc1ccc([C@]2(CCNCc3scc4c3CCC4)CCO[C@]3(CCOC3)C2)cc1 [Formate Salt of (+)-4] | > 30000 | ~0 | 0.07 |  | 
17 | Fc1ccc([C@]2(CCNCc3scc4c3COC4)CCO[C@]3(CCOC3)C2)cc1 [Hydrochloride Salt of (+)-12] | > 30000 | ~0 | 6.8 |  | 
18 | Fc1ccc([C@]2(CCNCc3cc(Cl)cc(Cl)c3)CCO[C@]3(CCOC3)C2)nc1 [Hydrochloride Salt of (+)-24] | > 30000 | ~0 | 0.2 | 95 | 
19 | c1ccc([C@]2(CCNCc3cc4c(s3)CCC4)CCOC3(CCCC3)C2)nc1 [compound 2, reference compound] |  | 35.2 |  | 105 | EC50 [2]: 500 nM
